Results on four compounds are retold here after the NIST ThermoML archive (doi:10.1021/je900470r).

A word on the mass density: it is mass per unit of volume. One may read the vapor or sublimation pressure as the pressure of vapour in equilibrium with the condensed phase. As a reminder, the refractive index is a measure of how strongly the sample bends light.

Structures are written as SMILES. Numbers after ± are expanded uncertainties.

The conditions of series [1]: Liquid; for mass density: 298.15 K, 101.33 kPa.
A short description of series [2]: refractive index (Na D-line) (dimensionless). The settings on record: 298.15 K; 101.33 kPa; Liquid; Standard Abbe refractometry.

For `CCC(C)=O` [butanone], the mass density in series [1] worked out at 799.62 ± 0.23 kg/m3. Also, in series [1] (352.68 K), the “vapor or sublimation pressure” value turned out to be 101.3 ± 0.2 kPa. Moreover, the refractive index in series [2] was found to be 1.3761 ± 0.0005.

Turning to `CCCCOC(=O)CC` [butyl propanoate], in series [1], the mass density amounted to 870.88 ± 0.48 kg/m3. Besides, in series [1] (418.69 K), the “vapor or sublimation pressure” value came out at 101.3 ± 0.3 kPa. Besides, the refractive index in series [2] is 1.3992 ± 0.0005.

In the case of `CC(C)O` [propan-2-ol], the mass density in series [1] was 780.75 ± 0.24 kg/m3. Besides, the refractive index in series [2] was 1.3754 ± 0.0005.

As to `CCO` [ethanol], in series [1], the mass density was found to be 786.47 ± 0.5 kg/m3. Further, the “vapor or sublimation pressure” value in series [1] (351.46 K) turned out to be 101.3 ± 0.2 kPa. Further, in series [2], the refractive index is 1.3594 ± 0.0005.
